Source: BindingDB's records for doi:10.1002/cbic.200800600 (Parc De Recerca Biomedica De Barcelona, 2009)

What was measured:
Experiment in all cases: In Vitro Kinase Assay
Conditions in all cases: pH 7.5
Angiopoietin-1 receptor = Angiopoietin-1 receptor (Homo sapiens, UniProt Q02763)
Protocol: (§1) The IC50 for the different compounds was determined with Invitrogen Z'-LYTE kinase assay kit Ser/Thr 1 peptide PV3174 by following the manufacturer's instructions. To determine the IC50 of receptor tyrosine kinase, an assay based on the ELISA principle with kinases from Biomol (N-terminally fused to GST), POD-coupled antibody from Calbiochem (PY20)) and BM chem chemiluminescence ELISA substrate from Roche was performed.

Aurora kinase A = target: T1, Aurora kinase A (Homo sapiens, UniProt O14965)
T1 sequence (O14965 whole entry): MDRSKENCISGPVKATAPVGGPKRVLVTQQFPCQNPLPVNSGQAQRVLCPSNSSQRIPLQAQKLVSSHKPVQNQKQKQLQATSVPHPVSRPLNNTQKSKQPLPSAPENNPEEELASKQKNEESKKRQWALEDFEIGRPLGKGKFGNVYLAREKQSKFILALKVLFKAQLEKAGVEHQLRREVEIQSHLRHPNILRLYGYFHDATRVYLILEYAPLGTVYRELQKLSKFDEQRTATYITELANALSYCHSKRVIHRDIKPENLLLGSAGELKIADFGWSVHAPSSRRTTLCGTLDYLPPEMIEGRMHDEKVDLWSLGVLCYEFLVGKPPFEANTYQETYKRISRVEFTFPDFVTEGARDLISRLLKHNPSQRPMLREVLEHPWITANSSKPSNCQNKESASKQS
Protocol: as §1

Aurora kinase B = Aurora kinase B (Homo sapiens, UniProt Q96GD4)
Protocol: as §1

[1] = target: Epidermal growth factor receptor (Homo sapiens, UniProt P00533)
Protocol: as §1

[2] = target: Fibroblast growth factor receptor 1 (Homo sapiens, UniProt P11362)
Protocol: as §1

[3] = target: Insulin-like growth factor 1 receptor (Homo sapiens, UniProt P08069)
Protocol: as §1

[4] = target: Vascular endothelial growth factor receptor 2 (Homo sapiens, UniProt P35968)
Protocol: as §1

[5] = target: Vascular endothelial growth factor receptor 3 (Homo sapiens, UniProt P35916)
Protocol: as §1

Vascular endothelial growth factor receptor 3, sequence (P35916 whole entry): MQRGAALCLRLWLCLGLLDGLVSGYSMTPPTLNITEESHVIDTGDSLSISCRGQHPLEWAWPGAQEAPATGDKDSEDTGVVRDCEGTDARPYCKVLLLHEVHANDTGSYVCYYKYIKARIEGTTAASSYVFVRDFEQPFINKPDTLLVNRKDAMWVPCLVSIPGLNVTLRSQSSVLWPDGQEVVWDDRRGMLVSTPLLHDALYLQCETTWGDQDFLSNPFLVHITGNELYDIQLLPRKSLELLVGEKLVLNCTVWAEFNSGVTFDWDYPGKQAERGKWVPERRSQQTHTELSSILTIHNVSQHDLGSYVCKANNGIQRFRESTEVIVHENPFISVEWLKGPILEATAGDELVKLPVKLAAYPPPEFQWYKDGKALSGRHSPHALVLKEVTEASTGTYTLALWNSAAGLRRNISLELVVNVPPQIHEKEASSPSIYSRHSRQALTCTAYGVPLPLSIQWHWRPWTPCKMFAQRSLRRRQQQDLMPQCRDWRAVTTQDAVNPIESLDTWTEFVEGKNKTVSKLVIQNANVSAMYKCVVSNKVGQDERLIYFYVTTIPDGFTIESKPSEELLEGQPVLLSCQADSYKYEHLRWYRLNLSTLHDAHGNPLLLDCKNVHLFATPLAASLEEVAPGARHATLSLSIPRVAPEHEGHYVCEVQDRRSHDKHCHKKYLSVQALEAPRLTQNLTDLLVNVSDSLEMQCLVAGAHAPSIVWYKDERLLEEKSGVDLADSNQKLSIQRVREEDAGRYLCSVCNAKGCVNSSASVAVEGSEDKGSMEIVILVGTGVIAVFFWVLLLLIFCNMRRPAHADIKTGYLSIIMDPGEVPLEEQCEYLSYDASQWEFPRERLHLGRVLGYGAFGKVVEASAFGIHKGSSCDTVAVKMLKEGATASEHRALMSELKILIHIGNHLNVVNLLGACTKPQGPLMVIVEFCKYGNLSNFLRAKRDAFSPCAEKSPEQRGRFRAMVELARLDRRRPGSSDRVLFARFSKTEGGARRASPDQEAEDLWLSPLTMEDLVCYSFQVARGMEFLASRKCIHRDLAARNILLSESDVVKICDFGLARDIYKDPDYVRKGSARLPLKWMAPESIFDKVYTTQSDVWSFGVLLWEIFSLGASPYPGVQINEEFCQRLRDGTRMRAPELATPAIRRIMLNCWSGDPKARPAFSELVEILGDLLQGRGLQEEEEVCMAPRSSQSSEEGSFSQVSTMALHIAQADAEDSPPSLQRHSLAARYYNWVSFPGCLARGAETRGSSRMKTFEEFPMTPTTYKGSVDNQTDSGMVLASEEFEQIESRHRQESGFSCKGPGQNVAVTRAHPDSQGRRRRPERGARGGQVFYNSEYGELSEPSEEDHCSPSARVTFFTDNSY
Fibroblast growth factor receptor 1, sequence (P11362 whole entry): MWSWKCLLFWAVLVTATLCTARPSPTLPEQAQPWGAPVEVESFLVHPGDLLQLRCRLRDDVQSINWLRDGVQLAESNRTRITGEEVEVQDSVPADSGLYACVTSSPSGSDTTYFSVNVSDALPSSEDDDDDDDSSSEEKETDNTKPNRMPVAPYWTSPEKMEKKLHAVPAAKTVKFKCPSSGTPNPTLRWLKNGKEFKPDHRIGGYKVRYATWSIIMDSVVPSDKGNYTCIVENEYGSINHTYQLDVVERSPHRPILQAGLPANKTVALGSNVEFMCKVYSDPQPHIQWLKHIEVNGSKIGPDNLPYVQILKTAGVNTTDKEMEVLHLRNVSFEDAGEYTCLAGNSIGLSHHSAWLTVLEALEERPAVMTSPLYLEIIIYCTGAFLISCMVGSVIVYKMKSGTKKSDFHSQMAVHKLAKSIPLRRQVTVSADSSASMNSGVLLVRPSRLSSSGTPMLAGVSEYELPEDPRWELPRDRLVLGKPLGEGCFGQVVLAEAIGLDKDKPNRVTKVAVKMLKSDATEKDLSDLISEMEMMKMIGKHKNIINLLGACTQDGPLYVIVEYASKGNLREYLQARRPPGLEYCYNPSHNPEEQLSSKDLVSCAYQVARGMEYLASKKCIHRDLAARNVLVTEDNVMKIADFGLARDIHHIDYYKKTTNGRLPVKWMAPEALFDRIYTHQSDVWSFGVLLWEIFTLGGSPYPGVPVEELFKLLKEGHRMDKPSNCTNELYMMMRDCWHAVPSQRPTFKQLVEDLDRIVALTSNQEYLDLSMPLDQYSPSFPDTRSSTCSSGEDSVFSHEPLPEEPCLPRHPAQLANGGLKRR
Angiopoietin-1 receptor, sequence (Q02763 whole entry, the tested form may be a part): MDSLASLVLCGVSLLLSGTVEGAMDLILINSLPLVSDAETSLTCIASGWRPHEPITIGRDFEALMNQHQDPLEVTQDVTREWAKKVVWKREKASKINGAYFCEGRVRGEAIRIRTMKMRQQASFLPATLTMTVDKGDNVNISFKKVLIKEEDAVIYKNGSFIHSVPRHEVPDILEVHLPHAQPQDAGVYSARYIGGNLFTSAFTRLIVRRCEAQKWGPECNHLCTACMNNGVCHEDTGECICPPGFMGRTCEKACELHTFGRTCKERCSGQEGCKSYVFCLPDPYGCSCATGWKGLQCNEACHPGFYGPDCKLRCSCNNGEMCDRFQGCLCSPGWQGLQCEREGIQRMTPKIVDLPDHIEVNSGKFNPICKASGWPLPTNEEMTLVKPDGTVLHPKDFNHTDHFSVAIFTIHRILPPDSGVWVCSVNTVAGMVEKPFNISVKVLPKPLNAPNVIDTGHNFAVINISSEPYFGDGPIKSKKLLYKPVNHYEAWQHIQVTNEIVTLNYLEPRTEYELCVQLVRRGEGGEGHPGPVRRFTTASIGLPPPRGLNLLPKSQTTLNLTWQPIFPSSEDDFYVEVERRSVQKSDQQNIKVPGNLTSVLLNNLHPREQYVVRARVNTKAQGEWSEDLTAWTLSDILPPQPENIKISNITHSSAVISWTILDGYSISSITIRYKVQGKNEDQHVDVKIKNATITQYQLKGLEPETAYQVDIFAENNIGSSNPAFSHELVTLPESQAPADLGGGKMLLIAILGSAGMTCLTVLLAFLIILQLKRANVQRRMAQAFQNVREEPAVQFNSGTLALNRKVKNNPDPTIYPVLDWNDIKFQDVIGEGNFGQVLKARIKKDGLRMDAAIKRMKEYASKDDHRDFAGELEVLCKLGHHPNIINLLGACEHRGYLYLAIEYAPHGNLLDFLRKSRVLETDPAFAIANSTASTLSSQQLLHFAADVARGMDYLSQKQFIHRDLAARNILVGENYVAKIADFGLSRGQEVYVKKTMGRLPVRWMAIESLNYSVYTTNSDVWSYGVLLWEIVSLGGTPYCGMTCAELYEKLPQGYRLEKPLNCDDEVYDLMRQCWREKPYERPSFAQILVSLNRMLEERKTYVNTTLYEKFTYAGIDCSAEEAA
Aurora kinase B, sequence (Q96GD4 whole entry): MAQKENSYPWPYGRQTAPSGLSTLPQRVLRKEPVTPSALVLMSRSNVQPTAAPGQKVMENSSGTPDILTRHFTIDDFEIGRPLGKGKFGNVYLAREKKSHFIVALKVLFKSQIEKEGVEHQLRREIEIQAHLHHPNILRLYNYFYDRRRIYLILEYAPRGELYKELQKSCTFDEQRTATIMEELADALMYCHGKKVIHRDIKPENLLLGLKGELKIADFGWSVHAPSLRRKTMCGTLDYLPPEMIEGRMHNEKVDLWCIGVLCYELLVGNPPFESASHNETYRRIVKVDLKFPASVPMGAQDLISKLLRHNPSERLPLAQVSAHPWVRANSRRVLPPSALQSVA
Insulin-like growth factor 1 receptor, sequence (P08069 31-736 limits assumed): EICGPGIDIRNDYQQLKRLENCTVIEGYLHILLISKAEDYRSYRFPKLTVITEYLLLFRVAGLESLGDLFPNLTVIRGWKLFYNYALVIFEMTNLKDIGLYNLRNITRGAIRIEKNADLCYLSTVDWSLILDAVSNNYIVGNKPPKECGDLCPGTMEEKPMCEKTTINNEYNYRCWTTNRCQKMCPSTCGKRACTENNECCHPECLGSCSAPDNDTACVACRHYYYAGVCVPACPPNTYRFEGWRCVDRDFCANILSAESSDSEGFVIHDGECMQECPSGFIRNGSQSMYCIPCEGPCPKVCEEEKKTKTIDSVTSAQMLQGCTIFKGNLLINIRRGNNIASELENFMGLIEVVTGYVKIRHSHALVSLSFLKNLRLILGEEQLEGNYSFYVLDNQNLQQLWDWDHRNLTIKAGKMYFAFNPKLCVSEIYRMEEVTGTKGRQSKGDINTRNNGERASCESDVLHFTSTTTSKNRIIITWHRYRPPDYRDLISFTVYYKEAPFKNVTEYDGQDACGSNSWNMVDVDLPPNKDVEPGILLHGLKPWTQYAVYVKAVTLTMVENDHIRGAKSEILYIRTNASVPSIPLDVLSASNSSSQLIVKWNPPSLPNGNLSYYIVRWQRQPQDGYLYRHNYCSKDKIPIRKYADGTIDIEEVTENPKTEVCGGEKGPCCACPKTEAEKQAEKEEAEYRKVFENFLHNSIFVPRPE
Insulin-like growth factor 1 receptor, sequence (P08069 741-1367 limits assumed): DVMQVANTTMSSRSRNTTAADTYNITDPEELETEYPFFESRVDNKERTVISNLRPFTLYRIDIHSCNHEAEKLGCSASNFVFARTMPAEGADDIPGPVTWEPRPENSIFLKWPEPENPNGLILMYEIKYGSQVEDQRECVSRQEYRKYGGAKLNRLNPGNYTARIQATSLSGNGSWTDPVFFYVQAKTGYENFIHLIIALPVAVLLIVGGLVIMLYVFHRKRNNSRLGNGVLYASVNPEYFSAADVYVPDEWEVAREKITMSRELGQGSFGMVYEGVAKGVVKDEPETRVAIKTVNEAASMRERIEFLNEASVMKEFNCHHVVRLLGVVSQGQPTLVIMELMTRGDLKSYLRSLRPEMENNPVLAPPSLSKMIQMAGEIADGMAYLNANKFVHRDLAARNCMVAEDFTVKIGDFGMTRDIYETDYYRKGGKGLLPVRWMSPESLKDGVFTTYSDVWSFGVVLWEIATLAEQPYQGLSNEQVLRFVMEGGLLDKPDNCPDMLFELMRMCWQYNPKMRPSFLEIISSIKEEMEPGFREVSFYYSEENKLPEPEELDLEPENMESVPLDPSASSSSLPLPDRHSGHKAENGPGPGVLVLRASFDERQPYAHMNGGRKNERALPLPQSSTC

SMILES	IC50 (Angiopoietin-1 receptor) [µM]	IC50 (Aurora kinase A) [µM]	IC50 (Aurora kinase B) [µM]	IC50 [1] [µM]	IC50 [2] [µM]	IC50 [3] [µM]	IC50 [4] [µM]	IC50 [5] [µM]
CC(C)Nc1nc(-c2ccco2)nc2ccc(C#CCO)cc12 [TC-28]	> 100	2.7	> 100	> 100	> 100	> 100	> 100	> 100
CC(C)Nc1nc(-c2ccco2)nc2ccc(C=CC(C)(C)O)cc12 [TC-34]	> 100	1.9	16.2	> 100	> 100	41.5		4.2
